{"source": "patent US10717781B2", "about": "“Neuroinvasion inhibitor” (National Cancer Center, priority 2008, dated 2020)", "key": {"[1]": {"system": "human pancreatic cancer cell lines", "assay": "chemotaxis assay", "format": "cell-based", "conditions": "hrIL6 0, 1, 10, 100 ng/ml, 24 hours (FIG. 2C)", "protocol": "(§1) Capan-1 and BxPC-3, which are human pancreatic cancer cell lines, were purchased from the American Type Culture Collection (ATCC). According to the manual recommended by ATCC, the cells were cultured and passaged using an incubator capable of maintaining a temperature of 37° C. under 5% CO2.\nCell culture inserts (BD Falcon) having 8-μm pores in the bottom surface were inserted into 24 wells. The cell culture inserts and wells were used as upper and lower chambers, respectively. Human recombinant IL-6 (hrIL6) vehicles were prepared at 0, 1, 10, and 100 ng/ml using hrIL6 (R&D systems) and serum-free culture medium. 600 μl of the hrIL6 vehicles was added to the lower chambers. 100 μl of a cell suspension (2×10^6 cells/ml) was added to the upper chambers. After 24 hours of incubation, cells that passed through the pores were counted. This assay was carried out twelve times for each group. The cell count was divided by the average number of cells that passed through the pores at 0 ng/ml hrIL6. The resulting normalized values were recorded.\n(§2) Using human recombinant IL-6, the effects of IL-6 on growth activity, chemotactic activity, and migratory activity of the human pancreatic cancer cell lines were assessed by monitoring the cell count over time (FIGS. 2A and 2B), by chemotaxis assay (FIG. 2C), and by wound healing assay (FIG. 2D)."}, "[2]": {"system": "human pancreatic cancer cell lines", "assay": "cell growth activity by monitoring the cell count over time", "format": "cell-based", "conditions": "cell count over time (FIGS. 2A and 2B)", "protocol": "as §1\nCells were harvested from dishes, and viable cells were counted using trypan blue and a hemocytometer.\nas §2"}, "[3]": {"system": "human pancreatic cancer cell lines", "assay": "wound healing assay (migratory activity)", "format": "cell-based", "conditions": "hrIL6 0, 1, 10, 100 ng/ml, 24 hours (FIG. 2D)", "protocol": "as §1\n1 ml of a cell suspension (3×10^5 cells/ml) was added to each of 24 wells, and incubated for 24 hours. Then, the medium was replaced with serum-free medium. After 24 hours of incubation, a strip-shaped cell-free area was produced by scraping the central area of the well with a glass rod. After measuring the width of the strip, the medium was replaced with an hrIL6 vehicle at 0, 1, 10, or 100 ng/ml. After 24 hours of incubation, changes in the width of the cell-free area were determined. This assay was carried out twelve times for each group. The determined values were divided by the average width change at 0 ng/ml hrIL6. The resulting normalized values were recorded.\nas §2"}, "[4]": {"system": "human pancreatic cancer Capan-1 cell line", "assay": "Western blotting of intracellular signaling (pSTAT3, pErk1/2, pAkt)", "format": "cell-based", "protocol": "Western blotting was carried out using the following primary antibodies: anti-phosphorylated STAT3 antibody (Santa Cruz), anti-STAT3 antibody (Santa Cruz), anti-phosphorylated Erk1/2 antibody (Cell Signaling), anti-Erk1/2 antibody (Cell Signaling), anti-phosphorylated Akt antibody (Cell Signaling), anti-Akt antibody (Cell Signaling), and anti-actin antibody (Santa Cruz). Fluorescent immunostaining was carried out using the following primary antibodies: anti-S100 antibody (DAKO) and anti-mouse IL-6 antibody (Santa Cruz). Nuclear staining was performed using DRAQ5 (AXXORA). Immunostaining was performed using an anti-phosphorylated STAT3 antibody (Santa Cruz).\nCell lysates were prepared using a lysate buffer (20 mM Hepes-NaOH (pH 7.0), 0.5% NP-40, 15% Glycerol, 300 mM NaCl, 1 mM EDTA, 10 mM NaF). The protein concentration was determined using a BCA Protein Assay Kit (PIERCE). Then, cell lysates containing […] of protein were electrophoresed in 7.5% or 12% acrylamide gels. The proteins were transferred onto a polyvinylidene difluoride membrane (Millipore). An antibody was added to the membrane, and the protein expression was visualized using Enhanced Chemiluminescence Reagent (Amersham Biosciences).\nUsing human recombinant IL-6 (rhIL6), the effect of IL-6 on intracellular signaling of the human pancreatic cancer Capan-1 cell line was assessed by Western blotting for phosphorylated STAT3 (pSTAT3) (FIG. 3A), phosphorylated Erk1/2 (pErk1/2) (FIG. 3B), and phosphorylated Akt (pAkt) (FIG. 3C). […] In contrast, IL-6 had no effect on the expression of phosphorylated Akt."}, "[5]": {"system": "pancreatic cancer", "conditions": "pancreatic cancer patients, foreign phase III clinical trial data, cited from earlier work"}, "[6]": {"system": "neural invasion of human pancreatic cancer cells in mouse sciatic nerve", "assay": "administration of inhibitors to neural invasion model mice", "format": "in vivo", "protocol": "Six-week-old male mice with severe combined immune deficiency (SCID) were used. The mice were anesthetized by administering barbital at 50 mg/kg into their peritoneal cavities. After exposing the left sciatic nerves, 2.5 μl of a suspension of cancer cells (1.0×10^4 cells/μl) was injected directly into the sciatic nerves using a microsyringe and 30-gauge needle. Upon assessment, the sciatic nerves into which cancer cells were injected were isolated. When tissue samples were prepared, the nerves were allowed to stand in 4% paraformaldehyde at 4° C. for one whole day and night to fix them. The fixed sciatic nerves were sliced into 3-μm sections, and then immunostained or hematoxylin/eosin-stained to measure the distance of neural invasion. Using an objective micrometer (Sankei Co.), the longitudinal length of the whole tumor was measured in the longitudinally sliced thin sections of the nerves to determine the distance of neural invasion. Tissue mRNA was extracted from tissue samples prepared by crushing with a Multi-Beads Shocker (Yasui Kikai Co.) immediately after harvesting the tissues.\nThe distance of neural invasion is an important factor in the mode of invasion of pancreatic cancer. […]\nThe analysis software used was STATVIEW 5.0. The difference between average values was evaluated by two-sided Student-t test. […]"}}, "note": "Structures can show the parent of a compound that is named as a salt.", "data": [{"molecule": "IL-6: Human recombinant IL-6 (R&D systems), cytokine added to pancreatic cancer cell lines", "values": [{"measurement": "effect on chemotactic activity", "setting": "[1]", "result": "enhances"}, {"measurement": "effect on cell growth", "setting": "[2]", "result": "no effect"}, {"measurement": "effect on migratory activity", "setting": "[3]", "result": "enhances"}, {"measurement": "expression of phosphorylated Akt", "setting": "[4]; Capan-1 (FIG. 3C)", "result": "no effect"}, {"measurement": "intracellular expression level of phosphorylated STAT3 protein", "setting": "[4]; Capan-1, 15 minutes after addition of rhIL6 (FIG. 3A)", "result": "clearly elevated"}, {"measurement": "intracellular expression level of phosphorylated Erk1/2 proteins", "setting": "[4]; Capan-1, one hour after addition of rhIL6 (FIG. 3B)", "result": "clearly elevated"}]}, {"molecule": "Nc1ccn([C@@H]2O[C@H](CO)[C@@H](O)C2(F)F)c(=O)n1", "note": "[gemcitabine hydrochloride]", "values": [{"measurement": "efficacy rate of palliative effects", "setting": "[5]; first drug of choice", "result": 23.8, "unit": "%"}, {"measurement": "median survival time", "setting": "[5]", "result": 5.7, "unit": "months"}, {"measurement": "one-year survival rate", "setting": "[5]", "result": 18, "unit": "%"}]}, {"molecule": "anti-human IL-6 receptor antibody: anti-IL-6 receptor antibody (tocilizumab; Chugai Pharmaceutical Co.), which inhibits the human IL-6 receptor; humanized PM-1 antibody", "values": [{"measurement": "neural invasion (invasion distance)", "setting": "[6]; 5 μg/g twice a week for two weeks from one week after injection of cancer cells, assessed at three weeks, vs human IgG (FIG. 9B)", "result": "suppression of neural invasion"}]}, {"molecule": "N#C/C(=C/c1ccc(O)c(O)c1)C(=O)NCc1ccccc1", "note": "[AG490]", "values": [{"measurement": "neural invasion (invasion distance)", "setting": "[6]; 0.5 mg intraperitoneally every day for 12 days from two days after injection of cancer cells, assessed at two weeks, vs 1% DMSO (FIG. 9A)", "result": "suppression of neural invasion"}]}]}
